We go through three molecules from US7378445B2, “Treatment of prostate cancer” (Peplin Research Pty. Ltd., priority 2000, dated 2008).

What all share (assay type): cell-based
In series [1] the test system is neonatal foreskin fibroblasts. The series is described as follows: Killing by untreated leukocytes of drug-pretreated normal cells ([3H]-thymidine). The following applies: target cells pretreated with 60 ng/mL for 20 hr, washed; 48 hr with human leukocytes; 100:1 ratio of effector:target cells. The method, then: (§1) The question of whether drug treatment of the target tumor cells causes them to become susceptible to effector cells of the immune system was addressed as follows.
(§2) Leukocytes obtained by lysis of human peripheral blood were added to 5000 MM96L human melanoma cells or 7000 neonatal foreskin fibroblasts per microtitre well at effector: target ratios of 1000, 100 and 10:1. The target cells had been treated with 60 ng/mL PEP008 for 20 hr beforehand, and washed and the medium replaced before the leukocytes were added. After 48 hr incubation with the leukocytes the cultures were washed and labelled with [3H]-thymidine for 2 hr. […] Untreated leukocytes had no effect on cell survival.

Series [2] concerns DU145 prostate cancer cells. The series can be described thus: Combination with chemotherapeutic agents, cytotoxicity (3H-thymidine incorporation). The following applies: 24 hr treatment, then five days growth; for cytotoxicity of combination with cisplatin compared to additive cytotoxicity: FIGS. 6A, 6B, 6E; for cytotoxicity of combination with SBHA compared to additive cytotoxicity: FIGS. 6C, 6D. The method, then: The prostate cancer cells were treated with (A) PEP006 and cisplatin, (B) PEP008 and cisplatin, (C) PEP005 and SBHA, (D) PEP008 and SBHA and (E) PEP005 and cisplatin for 24 hr after which the medium was changed and the cells permitted to grow in the presence of ^3H-thymidine for five days. The percentage cell survival was determined by measuring the incorporation of ^3H-thymidine in the cells.
For orientation: Dividing cells build labelled thymidine or BrdU into new DNA.

The test system of series [3] is MM96L human melanoma cells. The series is described as follows: Killing by untreated leukocytes of drug-pretreated tumor cells ([3H]-thymidine). To be noted: target cells pretreated with 60 ng/mL for 20 hr, washed; 48 hr with human leukocytes; 100:1 ratio of effector:target cells. As to the method: as §1, §2

Regarding `C/C=C(/C)C(=O)O[C@H]1C(C)=C[C@]23C(=O)[C@@H](C=C(COC(C)=O)[C@@H](O)[C@]12O)[C@H]1[C@@H](C[C@H]3C)C1(C)C` [PEP008, 20-O-acetyl-ingenol-3-angelate], the “survival of normal fibroblasts” value in series [1] is recorded as 100%. Also, in series [2], the “cytotoxicity of combination with cisplatin compared to additive cytotoxicity” value is “synergistic combinations” and the “cytotoxicity of combination with SBHA compared to additive cytotoxicity” value is “synergistic combinations”. Moreover, the “survival of melanoma cells” value in series [3] was found to be 12%.

Regarding `C/C=C(/C)C(=O)O[C@H]1C(C)=C[C@]23C(=O)[C@H](C=C(C)[C@@H](O)[C@]12O)[C@H]1[C@@H](C[C@H]3C)C1(C)C` [PEP006, 20-deoxy-Ingenol-3-angelate], the “cytotoxicity of combination with cisplatin compared to additive cytotoxicity” value in series [2] is given as “synergistic combinations”.

Consider `C/C=C(/C)C(=O)O[C@H]1C(C)=C[C@]23C(=O)[C@@H](C=C(CO)[C@@H](O)[C@]12O)[C@H]1[C@@H](C[C@H]3C)C1(C)C` [PEP005, Ingenol-3-angelate], for which, in series [2], the “cytotoxicity of combination with cisplatin compared to additive cytotoxicity” value is “synergistic combinations” and the “cytotoxicity of combination with SBHA compared to additive cytotoxicity” value is given as “synergistic combinations”.
